# Measurements taken from US7368578B2, “Five-membered heterocyclic compounds” (Takeda Pharmaceutical Company Limited, priority 2002, dated 2008).
# Biological target: T1, human PPARγ1 (Homo sapiens, UniProt P37231)
# T1 construct: made in house; host or cells: COS-1 cells transiently transfected with pMCMVneo-hPPARγ; crude supernatant of the lysate, not purified
# T1 sequence (P37231 1-477 isoform P37231-2): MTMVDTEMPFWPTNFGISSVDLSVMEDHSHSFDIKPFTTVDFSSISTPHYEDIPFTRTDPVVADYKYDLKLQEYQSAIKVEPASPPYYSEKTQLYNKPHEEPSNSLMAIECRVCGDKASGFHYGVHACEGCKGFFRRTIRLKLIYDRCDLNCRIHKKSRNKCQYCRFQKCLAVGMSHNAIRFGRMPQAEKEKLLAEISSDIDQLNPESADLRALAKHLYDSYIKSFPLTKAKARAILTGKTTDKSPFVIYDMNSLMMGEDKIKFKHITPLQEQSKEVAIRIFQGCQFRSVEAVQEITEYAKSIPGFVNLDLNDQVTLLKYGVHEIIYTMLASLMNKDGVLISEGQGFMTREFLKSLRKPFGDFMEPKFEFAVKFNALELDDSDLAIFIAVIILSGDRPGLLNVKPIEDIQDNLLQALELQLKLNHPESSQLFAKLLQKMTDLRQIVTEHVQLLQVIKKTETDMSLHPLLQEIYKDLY
# Experiment: Measurement of human PPARγ1 binding activity ([3H]-compound A displacement)
# Conditions: cell extract with 1.5 μg/ml full length hPPARγ1, 20 nM [3H]-compound A, 4° C., 16 hrs
# Experimental: A cell extract containing 1.5 μg/ml of full length hPPARγ1 prepared in Reference Example 7a, 20 nM [^3H]-compound A (16 Ci/mmol)(Amersham Pharmacia Biotech) and a test compound were reacted in TEGM buffer at 4° C. for 16 hrs. To the reaction mixture was added activated carbon (Sigma) coated with 140 μl of dextran (Amersham Pharmacia Biotech) and gelatin (Sigma), and the mixture was left standing at 4° C. for 10 min and centrifuged at 910×g for 10 min. After centrifugation, the radioactivity of 30 μl of supernatant was measured with Topcount (Packard). In addition, a test similar to the above was conducted for the non-use of the aforementioned test compound and for the use of 100 μM of compound A instead of the aforementioned test compound, and the radioactivity was determined.
# The human PPARγ1 binding activity of the test compound was evaluated using percentages wherein the measured value of the radioactivity when 20 nM [^3H]-compound A alone was added was 100%, and the measured value of the radioactivity when 20 nM [^3H]-compound A and 100 μM of compound A were simultaneously added was 0%. Moreover, the IC50 value of the test compound was calculated based on the analysis of the compound concentration and the percentage using PRISM3.0 (Graph Pad, Inc.).
# COS-1 cells were seeded in a 150 cm^2 tissue culture flask (Corning Inc.) at 5×10^6 cells, and cultured under 37° C. 5% CO2 conditions for 24 hrs. Transfection was performed using lipofectamine (GIBCO BRL). To be specific, 125 μl of lipofectamine, 100 μl of PLUS Reagent and 15 μg of hPPARγ expression plasmid (plasmid pMCMVneo-hPPARγ obtained in Reference Example 6a) were mixed with opti-MEM (GIBCO BRL) to give a transfection mixture. The transfection mixture (25 ml) was added to COS-1 cells and the cells were cultured under 37° C. 5% CO2 conditions for 3 hrs. Then 25 ml of DMEM medium (Nikken Biomedical Laboratory) containing 10% FCS treated with activated carbon (Sigma) was added to the cells and the cells were cultured under 37° C. 5% CO2 conditions. After 24 hrs., the medium was substituted with 50 ml of DMEM medium (Nikken Biomedical Laboratory) containing 5% FCS treated with activated carbon, and the cells were cultured under 37° C., 5% CO2 conditions. After 48 hrs, the transfected cells were recovered and washed with TEG buffer (10 mM Tris-HCl (pH 7.2), 50 mM EDTA, 10% glycerol). The cells were suspended in 1 ml TEGM buffer (10 mM Tris-HCl (pH 7.2), 1 mM EDTA, 10% glycerol, 7 μl/100 ml β-mercaptoethanol, 10 mM Na molybdate, 1 mM dithiothreitol, 2 tablets/100 ml Protease inhibitor Cocktail tablets (Boehringer Mannheim)) and, for cell lysis, frozen with liquid nitrogen and thawed on ice. To remove the debris of the cells, the extract was centrifuged at 228,000×g, 4° C. for 20 min. and the supernatant was preserved at −80° C. until use.
row,IC50,Structure (SMILES)
1,1100 nM,"Cc1oc(-c2ccco2)nc1COc1ccc(COc2nn(Cc3ccccc3)cc2C=O)cn1 [Example 42, 1-benzyl-3-[(6-{[2-(2-furyl)-5-methyl-1,3-oxazol-4-yl]methoxy}-3-pyridinyl)methoxy]-1H-pyrazole-4-carbaldehyde]"
2,770 nM,"CCOC(=O)c1cn(-c2ccccc2)nc1OCc1ccc(OCc2nc(-c3ccco3)oc2C)c(OC)c1 [Example 72, ethyl 3-[(4-{[2-(2-furyl)-5-methyl-1,3-oxazol-4-yl]methoxy}-3-methoxybenzyl)oxy]-1-phenyl-1H-pyrazole-4-carboxylate]"
3,660 nM,"COc1cc(COc2nn(-c3ccccc3)cc2CO)ccc1OCc1nc(-c2ccco2)oc1C [Example 75, {3-[(4-{[2-(2-furyl)-5-methyl-1,3-oxazol-4-yl]methoxy}-3-methoxybenzyl)oxy]-1-phenyl-1H-pyrazol-4-yl}methanol]"
4,190 nM,"COc1cc(COc2nn(-c3ccccc3)cc2C=O)ccc1OCc1nc(-c2ccco2)oc1C [Example 76, 3-[(4-{[2-(2-furyl)-5-methyl-1,3-oxazol-4-yl]methoxy}-3-methoxybenzyl)oxy]-1-phenyl-1H-pyrazole-4-carbaldehyde]"
5,79 nM,"COc1cc(COc2nn(-c3ccccc3)cc2C#N)ccc1OCc1nc(-c2ccco2)oc1C [Example 77, 3-[(4-{[2-(2-furyl)-5-methyl-1,3-oxazol-4-yl]methoxy)-3-methoxybenzyl)oxy]-1-phenyl-1H-pyrazole-4-carbonitrile]"
6,80 nM,"COc1cc(COc2nn(-c3ccccc3)cc2/C=C/P(=O)(OC(C)C)OC(C)C)ccc1OCc1nc(-c2ccco2)oc1C [Example 145, diisopropyl (E)-2-{3-[(4-{[2-(2-furyl)-5-methyl-1,3-oxazol-4-yl]methoxy}-3-methoxybenzyl)oxy]-1-phenyl-1H-pyrazol-4-yl}ethenylphosphonate]"
7,50 nM,"COc1cc(COc2nn(-c3ccccc3)cc2/C=C/c2csc(C)n2)ccc1OCc1nc(-c2ccco2)oc1C [Example 150 (E form), 2-(2-furyl)-4-({2-methoxy-4-[({4-[(E)-2-(2-methyl-1,3-thiazol-4-yl)ethenyl]-1-phenyl-1H-pyrazol-3-yl}oxy)methyl]phenoxy}methyl)-5-methyl-1,3-oxazole]"
8,7300 nM,"CCC(=O)/C=C/c1cn(-c2ccccc2)nc1OCc1ccc(OCc2nc(-c3ccco3)oc2C)c(OC)c1 [Example 156, (1E)-1-{3-[(4-{[2-(2-furyl)-5-methyl-1,3-oxazol-4-yl]methoxy}-3-methoxybenzyl)oxy]-1-phenyl-1H-pyrazol-4-yl}-1-penten-3-one]"
9,3.6 nM,"CCc1nc(/C=C/c2cn(-c3ccccc3)nc2OCc2ccc(OCc3nc(-c4cccc(C(=O)O)c4)oc3C)c(OC)c2)cs1 [Example 224, 3-[4-({4-[({4-[(E)-2-(2-ethyl-1,3-thiazol-4-yl)ethenyl]-1-phenyl-1H-pyrazol-3-yl}oxy)methyl]-2-methoxyphenoxy}methyl)-5-methyl-1,3-oxazol-2-yl]benzoic acid]"
10,120 nM,"COc1cc(COc2nn(-c3ccccc3)cc2/C=C/C#N)ccc1OCc1nc(-c2ccccc2)oc1C [Example 282, (E)-3-(3-{[3-methoxy-4-(5-methyl-2-phenyl-1,3-oxazol-4-ylmethoxy)benzyl]oxy}-1-phenyl-1H-pyrazol-4-yl)-2-propenonitrile]"
11,75 nM,"CCOC(=O)/C=C/c1cn(-c2ccccc2)nc1OCc1ccc(OCc2nc(-c3ccccc3)oc2C)c(OC)c1 [Example 284, ethyl (E)-3-(3-{[3-methoxy-4-(5-methyl-2-phenyl-1,3-oxazol-4-ylmethoxy)benzyl]oxy}-1-phenyl-1H-pyrazol-4-yl)-2-propenoate]"

row,Structure (SMILES),IC50
1,"CCOP(=O)(CCc1cn(-c2ccccc2)nc1OCc1ccc(OCc2nc(-c3ccco3)oc2C)c(OC)c1)OCC [Example 100, diethyl 2-{3-[(4-{[2-(2-furyl)-5-methyl-1,3-oxazol-4-yl]methoxy}-3-methoxybenzyl)oxy]-1-phenyl-1H-pyrazol-4-yl}ethylphosphonate]",210 nM
2,"CCOP(=O)(/C=C/c1cn(-c2ccccc2)nc1OCc1ccc(OCc2nc(-c3ccco3)oc2C)c(OC)c1)OCC [Example 116 (E form), diethyl (E)-2-{3-[(4-{[2-(2-furyl)-5-methyl-1,3-oxazol-4-yl]methoxy}-3-methoxybenzyl)oxy]-1-phenyl-1H-pyrazol-4-yl}ethenylphosphonate]",39 nM
3,"CCOP(=O)(/C=C/c1cn(-c2ccccc2)nc1OCc1ccc(OCc2nc(-c3ccccc3)oc2C)c(OC)c1)OCC [Example 146, diethyl (E)-2-[3-({3-methoxy-4-[(5-methyl-2-phenyl-1,3-oxazol-4-yl)methoxy]benzyl}oxy)-1-phenyl-1H-pyrazol-4-yl]ethenylphosphonate]",68 nM
4,"CCOP(=O)(/C=C/c1cn(-c2ccccc2)nc1OCc1ccc(OCc2csc(N3CCOCC3)n2)c(OC)c1)OCC [Example 191, diethyl (E)-2-{3-[(3-methoxy-4-{[2-(morpholin-4-yl)-1,3-thiazol-4-yl]methoxy}benzyl)oxy]-1-phenyl-1H-pyrazol-4-yl}ethenylphosphonate]",810 nM
5,"CCOP(=O)(/C=C/c1cn(-c2ccccc2)nc1OCc1ccc(OCc2nc(-c3cccc(C(=O)O)c3)oc2C)c(OC)c1)OCC [Example 203, 3-[4-({4-[({4-[(E)-2-(diethoxyphosphoryl)ethenyl]-1-phenyl-1H-pyrazol-3-yl}oxy)methyl]-2-methoxyphenoxy}methyl)-5-methyl-1,3-oxazol-2-yl]benzoic acid]",4.8 nM
6,"CCOP(=O)(/C=C/c1cn(-c2ccccc2)nc1OCc1ccc(OCc2nc(-c3cccc(C(=O)OC)c3)oc2C)c(OC)c1)OCC [Example 211, methyl 3-[4-({4-[({4-[(E)-2-(diethoxyphosphoryl)ethenyl]-1-phenyl-1H-pyrazol-3-yl}oxy)methyl]-2-methoxyphenoxy}methyl)-5-methyl-1,3-oxazol-2-yl]benzoate]",27 nM
7,"CCOP(=O)(/C=C/c1cn(-c2ccccc2)nc1OCc1ccc(OCc2nc(-c3cccc(C(N)=O)c3)oc2C)c(OC)c1)OCC [Example 239, diethyl (E)-2-(3-{[4-({2-[3-(carbamoyl)phenyl]-5-methyl-1,3-oxazol-4-yl}methoxy)-3-methoxybenzyl]oxy}-1-phenyl-1H-pyrazol-4-yl)ethenylphosphonate]",61 nM
8,"CCOP(=O)(/C=C/c1cn(-c2ccccc2)nc1OCc1ccc(OCc2nc(-c3ccc(CC(=O)O)cc3)oc2C)c(OC)c1)OCC [Example 241, {4-[4-({4-[({4-[(E)-2-(diethoxyphosphoryl)ethenyl]-1-phenyl-1H-pyrazol-3-yl}oxy)methyl]-2-methoxyphenoxy}methyl)-5-methyl-1,3-oxazol-2-yl]phenyl}acetic acid]",69 nM
9,"CCOP(=O)(/C=C/c1cn(-c2ccccc2)nc1OCc1ccc(OCc2nc(-c3cccc(CC(=O)O)c3)oc2C)c(OC)c1)OCC [Example 249, {3-[4-({4-[({4-[(E)-2-(diethoxyphosphoryl)ethenyl]-1-phenyl-1H-pyrazol-3-yl}oxy)methyl]-2-methoxyphenoxy}methyl)-5-methyl-1,3-oxazol-2-yl]phenyl}acetic acid]",33 nM
10,"CCOP(=O)(/C=C/c1cn(-c2ccccc2)nc1OCc1ccc(OCc2nc(-c3ccc(OC)c(C(=O)O)c3)oc2C)c(OC)c1)OCC [Example 252, 5-{4-({4-[({4-[(E)-2-(diethoxyphosphoryl)ethenyl]-1-phenyl-1H-pyrazol-3-yl}oxy)methyl]-2-methoxyphenoxy}methyl)-5-methyl-1,3-oxazol-2-yl}-2-methoxybenzoic acid]",23 nM
